This note sets out measurements from patent US6369088B2, “Substituted 3-phenyl-5-alkoxy-1,3,4-oxadiazol-2-ones, their preparation and their use as pharmaceuticals” (Aventis Pharma Deutschland GmbH, priority 2000, dated 2002).

Usually IC50 stands for the point on the concentration scale where inhibition reaches its midpoint. For orientation: melting point means the temperature, or range, at which the solid turns liquid.

Each structure is given as a SMILES string.

For data set [1], the target named is T1, hormone-sensitive lipase (HSL) (Rattus norvegicus, UniProt P15304).
T1 construct: Isolated rat fat cells were obtained from epididymal adipose tissue; from tissue; host or cells: rat epididymal adipose tissue (isolated fat cells, Wistar rats)
T1 sequence (P15304 1-768 isoform P15304-2): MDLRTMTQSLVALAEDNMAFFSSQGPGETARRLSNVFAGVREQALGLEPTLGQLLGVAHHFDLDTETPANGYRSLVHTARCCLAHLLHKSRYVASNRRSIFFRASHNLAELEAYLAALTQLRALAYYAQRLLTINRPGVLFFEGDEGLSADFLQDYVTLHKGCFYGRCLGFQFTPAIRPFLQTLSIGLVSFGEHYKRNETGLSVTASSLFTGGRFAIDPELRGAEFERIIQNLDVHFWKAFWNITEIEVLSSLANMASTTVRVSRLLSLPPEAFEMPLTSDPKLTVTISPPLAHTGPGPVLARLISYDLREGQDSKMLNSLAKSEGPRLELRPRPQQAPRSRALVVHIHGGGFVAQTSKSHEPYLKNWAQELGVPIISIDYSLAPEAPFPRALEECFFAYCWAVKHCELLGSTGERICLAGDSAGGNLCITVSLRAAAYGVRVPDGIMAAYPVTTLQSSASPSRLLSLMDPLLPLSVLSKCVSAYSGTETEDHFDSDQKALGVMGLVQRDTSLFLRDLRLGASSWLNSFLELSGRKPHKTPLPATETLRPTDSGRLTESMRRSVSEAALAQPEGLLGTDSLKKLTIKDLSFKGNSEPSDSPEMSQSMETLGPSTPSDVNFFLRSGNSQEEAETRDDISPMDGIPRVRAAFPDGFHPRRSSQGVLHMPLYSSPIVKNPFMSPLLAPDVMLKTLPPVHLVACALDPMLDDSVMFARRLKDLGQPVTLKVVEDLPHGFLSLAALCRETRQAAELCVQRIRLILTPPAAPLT
The experiment in a line: HSL enzyme assay: [3H]trioleoylglycerol hydrolysis by partially purified HSL. The note with it: partially purified HSL from rat fat cells; [3H]trioleoylglycerol substrate; 37° C., 30 min; read-out: IC50. The class given is biochemical. How it is done: The effect of the compounds of the invention on HSL was tested using the following enzyme assay system:
Preparation of Partially Purified HSL:
The fat cells from 10 rats were washed three times by flotation with 50 ml each time of homogenization buffer ([…] tris/HCl, pH 7.4, 0.25 M sucrose, 1 mM EDTA, 1 mM DTT, 10 μg/ml leupeptin, 10 μg/ml antipain, 20 μg/ml pepstatin) and finally taken up in 10 ml of homogenization buffer. The fat cells were homogenized in a Teflon-in-glass homogenizer (Braun-Melsungen) by 10 strokes at 1500 rpm and 15° C. The homogenate was centrifuged (Sorvall SM24 tubes, 5000 rpm, 10 min, 4° C.). The subnatant between the fatty layer at the top and the pellet was removed and the centrifugation was repeated. The subnatant resulting therefrom was recentrifuged (Sorvall SM24 tubes, 20000 rpm, 45 min, 4° C.). […] After the mixture had been incubated at 4° C. for 60 min (shaking at 15-min intervals), it was centrifuged (Sorvall SM24 tubes, 3000 rpm, 10 min, 4° C.). The supernatant was adjusted to pH 5.2 by adding glacial acetic acid and incubated at 4° C. for 30 min. The precipitates were collected by centrifugation (Sorvall SS34, 12000 rpm, 10 min, 4° C.) and suspended in 2.5 ml of 20 mM tris/HCl, pH 7.0,1 mM EDTA, 65 mM NaCl, 13% sucrose, 1 mM DTT, 10 μg/ml leupeptin/pepstatin/antipain. The suspension was dialyzed against 25 mM tris/HCl, pH 7.4, 50% glycerol, 1 mM DTT, 10 μg/ml leupeptin, pepstatin, antipain at 4° C. overnight and then loaded onto a hydroxy apatite column (0.1 g per 1 ml of suspension, equilibrated with 10 mM potassium phosphate, pH 7.0, 30% glycerol, 1 mM DTT). The column was washed with four volumes of equilibration buffer at a flow rate of 20 to 30 ml/h. The HSL was eluted with one volume of equilibration buffer containing 0.5 M potassium phosphate, and then dialyzed (see above) and concentrated 5- to 10-fold by ultrafiltration (Amicon Diaflo PM 10 filter) at 4° C. The partially purified HSL can be stored at −70° C. for 4 to 6 weeks.
To prepare the substrate, 25-50 μCi of [^3H]trioleoylglycerol (in toluene), 6.8 μmol of unlabeled trioleoylglycerol and 0.6 mg of phospholipids (phosphatidylcholine/phosphatidylinositol 3:1 w/v) were mixed, dried with N2 and then taken up in 2 ml of 0.1 M KPi (pH 7.0) by ultrasonic treatment (Branson 250, microtip, setting 1-2, 2×1 min at 1-min intervals). After addition of 1 ml of KPi and renewed ultrasonic treatment (4×30 sec on ice in 30-sec intervals), 1 ml of 20% BSA (in KPi) was added (final concentration of trioleoylglycerol 1.7 mM). For the reaction, 100 μl of substrate solution were pipetted into 100 μl of HSL solution (HSL prepared as above, diluted in 20 mM KPi, pH 7.0, 1 mM EDTA, 1 mM DTT, 0.02% BSA, 20 μg/ml pepstatin, 10 μg/ml leupeptin) and incubated at 37° C. for 30 min. […] After phase separation, one equivalent of the upper phase (1 ml) was removed and the radioactivity was determined by liquid scintillation measurement.
Substances were normally tested in four independent mixtures. The inhibition of the HSL enzymatic activity by a test substance was determined by comparison with an uninhibited control reaction. The IC50 was calculated via an inhibition plot with at least 10 concentrations of the test substance. The data was analyzed using the software package GRAPHIT, Elsevier-BIOSOFT.

`COc1nn(-c2ccc(NS(=O)(=O)C=Cc3ccccc3)c(C)c2)c(=O)o1` [Example 39, 5-Methoxy-3-(4-(2-phenylethenylsulfonylamino)-3-methylphenyl)-3H-(1,3,4)oxadiazol-2-one] returned a melting point of 129 °C. The 50% inhibitory concentration (IC50) in data set [1] was found to be 1000 nM.
The compound `CCCCCCCc1ccc(C(=O)Nc2ccc(-n3nc(OC)oc3=O)c(Cl)c2)cc1` [Example 71, 5-Methoxy-3-(2-chloro-4-(4-heptylbenzoylamino)phenyl)-3H-(1,3,4)oxadiazol-2-one] displayed a melting point of 135 °C. The 50% inhibitory concentration (IC50) in data set [1] was determined as 20 nM.
`COc1nn(-c2ccc(NS(=O)(=O)c3cccc4ccccc34)c(C)c2)c(=O)o1` [Example 38, 5-Methoxy-3-(4-(1-naphthylsulfonylamino)-3-methylphenyl)-3H-(1,3,4)oxadiazol-2-one] returned a melting point of 123 °C. In addition, the concentration for half-maximal inhibition (IC50) in data set [1] amounted to 1000 nM.
On to `COc1nn(-c2ccc(NC(=O)Nc3ccc(Cl)c(Cl)c3)c(C)c2)c(=O)o1` [Example 42, 5-Methoxy-3-(4-(3,4-dichlorophenylaminocarbonylamino)-3-methylphenyl)-3H-(1,3,4)oxadiazol-2-one], for which the melting point was determined as 210 °C. The 50% inhibitory concentration (IC50) in data set [1] came to 1000 nM.
As to `COc1nn(-c2ccc(NS(=O)(=O)c3ccc(Cl)cc3)c(C)c2)c(=O)o1` [Example 37, 5-Methoxy-3-(4-(4-chlorophenylsulfonylamino)-3-methylphenyl)-3H-(1,3,4)oxadiazol-2-one], the melting point came to 147 °C. Moreover, the IC50 in data set [1] was 1000 nM.
The corresponding values for `CCCCc1ccc(S(=O)(=O)Nc2ccc(-n3nc(OC)oc3=O)cc2)cc1` [Example 34, 5-Methoxy-3-(4-(4-butylphenylsulfonylamino)phenyl)-3H-(1,3,4)oxadiazol-2-one] are 135 °C and 1000 nM.
In turn, `COc1nn(-c2ccc(N)c(C)c2)c(=O)o1` [Example 28, 5-Methoxy-3-(4-amino-3-methylphenyl)-3H-(1,3,4)oxadiazol-2-one] came in with a melting point of 114 °C. For the same compound, the half-inhibitory concentration (IC50) in data set [1] is 6000 nM.
